A value given as a limit tells only on which side of the number the result lay.

One test addresses LXRβ (Homo sapiens (Human), UniProt P55055). As to the kind of experiment: In vitro assay LXRβ: PathHunter NHR CHO cells, LXRβ / Steroid Receptor Co-activator Peptide enzyme fragment complementation. Particulars: PathHunter NHR CHO cells, full-length human LXRβ and SRCP, chemiluminescent signal; read-out: LXRβ PPI. Format: cell-based. Put shortly: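 Co-activator recruitment measured by chemiluminescence after signal generation. The CHO line carries full-length human LXRβ tagged with ProLink and an SRCP–enzyme acceptor fusion in the nucleus; cells sat overnight at 37° C before testing, in charcoal-dextran filtered serum medium with 1% final vehicle.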

A further test has as its target SREBP-2 (Homo sapiens (Human), UniProt Q12772). As to the kind of experiment: In vitro assay SREBP-2: PathHunter U2OS SREBP-2 Nuclear Translocation Cell Line, U18666A-stimulated. The format is cell-based. Particulars: PathHunter U2OS SREBP-2 nuclear translocation cells, U18666A 10 μM, overnight (16 hours).

LXRβ, sequence (P55055 whole entry, the tested form may be a part): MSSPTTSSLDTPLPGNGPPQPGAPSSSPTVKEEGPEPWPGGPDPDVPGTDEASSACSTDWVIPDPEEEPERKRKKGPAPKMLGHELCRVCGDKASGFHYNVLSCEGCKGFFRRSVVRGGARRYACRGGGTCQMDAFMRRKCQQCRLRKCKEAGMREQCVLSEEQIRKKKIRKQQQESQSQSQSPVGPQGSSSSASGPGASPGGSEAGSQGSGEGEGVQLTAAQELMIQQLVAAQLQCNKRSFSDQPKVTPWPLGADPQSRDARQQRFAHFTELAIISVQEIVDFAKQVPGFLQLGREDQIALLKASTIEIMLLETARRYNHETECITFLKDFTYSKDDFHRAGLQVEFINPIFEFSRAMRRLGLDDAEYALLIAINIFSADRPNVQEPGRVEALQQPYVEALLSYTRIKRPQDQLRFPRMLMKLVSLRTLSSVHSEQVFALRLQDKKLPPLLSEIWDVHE

On to `Cc1nnc(C(=O)N2CCN(C(=O)CC[C@@H](C)[C@H]3CC[C@H]4[C@@H]5CC=C6C[C@@H](O)CC[C@]6(C)[C@H]5CC[C@]34C)CC2)o1` [Example 540, (R)-4-((3S,8S,9S,10R,13R,14S,17R)-3-hydroxy-10,13-dimethyl-2,3,4,7,8,9,10,11,12,13,14,15,16,17-tetradecahydro-1H-cyclopenta[a]phenanthren-17-yl)-1-(4-(5-methyl-1,3,4-oxadiazole-2-carbonyl)piperazin-1-yl)pentan-1-one], for which, on LXRβ, the EC50 is more than 10000 nM. Besides, the IC50 (commonly the concentration at which inhibition is half-maximal) against SREBP-2 was less than 250 nM.
The like results for `Cc1cncnc1N1CCN(C(=O)CC[C@@H](C)[C@H]2CC[C@H]3[C@@H]4CC=C5C[C@@H](O)CC[C@]5(C)[C@H]4CC[C@]23C)CC1` [Example 508, (R)-4-((3S,8S,9S,10R,13R,14S,17R)-3-hydroxy-10,13-dimethyl-2,3,4,7,8,9,10,11,12,13,14,15,16,17-tetradecahydro-1H-cyclopenta[a]phenanthren-17-yl)-1-(4-(5-methylpyrimidin-4-yl)piperazin-1-yl)pentan-1-one] were, in that order, more than 10000 nM and less than 250 nM.
On the same counts, the results for `COc1ccccc1N1CCN(C(=O)CC[C@@H](C)[C@H]2CC[C@H]3[C@@H]4CC=C5C[C@@H](O)CC[C@]5(C)[C@H]4CC[C@]23C)CC1` [Example 624, (R)-4-((3S,8S,9S,10R,13R,14S,17R)-3-hydroxy-10,13-dimethyl-2,3,4,7,8,9,10,11,12,13,14,15,16,17-tetradecahydro-1H-cyclopenta[a]phenanthren-17-yl)-1-(4-(2-methoxyphenyl)piperazin-1-yl)pentan-1-one] are more than 10000 nM and less than 250 nM.
In the case of `Cc1ccnc(N2CCN(C(=O)CC[C@@H](C)[C@H]3CC[C@H]4[C@@H]5CC=C6C[C@@H](O)CC[C@]6(C)[C@H]5CC[C@]34C)CC2)c1` [Example 658, (R)-4-((3S,8S,9S,10R,13R,14S,17R)-3-hydroxy-10,13-dimethyl-2,3,4,7,8,9,10,11,12,13,14,15,16,17-tetradecahydro-1H-cyclopenta[a]phenanthren-17-yl)-1-(4-(4-methylpyridin-2-yl)piperazin-1-yl)pentan-1-one], the EC50 at LXRβ was more than 10000 nM. The same molecule yielded an IC50 at SREBP-2 of less than 250 nM.
On the same counts, the results for `C[C@H](CCC(=O)N1CCC(F)(F)CC1)[C@H]1CC[C@H]2[C@@H]3CC=C4C[C@@H](O)CC[C@]4(C)[C@H]3CC[C@]12C` [Example 79, (R)-1-(4,4-difluoropiperidin-1-yl)-4-((3S,8S,9S,10R,13R,14S,17R)-3-hydroxy-10,13-dimethyl-2,3,4,7,8,9,10,11,12,13,14,15,16,17-tetradecahydro-1H-cyclopenta[a]phenanthren-17-yl) pentan-1-one] are 1000 to 10000 nM and less than 250 nM.
On the same counts, the results for `C[C@H](CCC(=O)N1CCN(C(=O)c2cnn(C)c2)C[C@@H]1C)[C@H]1CC[C@H]2[C@@H]3CC=C4C[C@@H](O)CC[C@]4(C)[C@H]3CC[C@]12C` [Example 578, (R)-4-((3S,8S,9S,10R,13R,14S,17R)-3-hydroxy-10,13-dimethyl-2,3,4,7,8,9,10,11,12,13,14,15,16,17-tetradecahydro-1H-cyclopenta[a]phenanthren-17-yl)-1-((S)-2-methyl-4-(1-methyl-1H-pyrazole-4-carbonyl)piperazin-1-yl)pentan-1-one] are more than 10000 nM and less than 250 nM.
On the same counts, the results for `CC[C@@]1(OC)CCCN(C(=O)CC[C@@H](C)[C@H]2CC[C@H]3[C@@H]4CC=C5C[C@@H](O)CC[C@]5(C)[C@H]4CC[C@]23C)C1` [Example 201, (R)-1-((R)-3-ethyl-3-methoxypiperidin-1-yl)-4-((3S,8S,9S,10R,13R,14S,17R)-3-hydroxy-10,13-dimethyl-2,3,4,7,8,9,10,11,12,13,14,15,16,17-tetradecahydro-1H-cyclopenta[a]phenanthren-17-yl)pentan-1-one] are 1000 to 10000 nM and less than 250 nM.
`C[C@H](CCC(=O)N(C)C)[C@H]1CC[C@H]2[C@@H]3CC=C4C[C@@H](O)CC[C@]4(C)[C@H]3[C@@H](O)C[C@]12C` [Example 157, (R)-4-((3S,8S,9S,10R,11S,13R,14S,17R)-3,11-dihydroxy-10,13-dimethyl-2,3,4,7,8,9,10,11,12,13,14,15,16,17-tetradecahydro-1H-cyclopenta[a]phenanthren-17-yl)-N, N-dimethylpentanamide]: at LXRβ, the EC50 was in the range of 250 to 1000 nM. The molecule further returned a half-inhibitory concentration (IC50) at SREBP-2 of 250 to 1000 nM.
Regarding `CNC(=O)NCC1(C)CCN(C(=O)CC[C@@H](C)[C@H]2CC[C@H]3[C@@H]4CC=C5C[C@@H](O)CC[C@]5(C)[C@H]4CC[C@]23C)CC1` [Example 364, 1-((1-((R)-4-((3S,8S,9S,10R,13R,14S,17R)-3-hydroxy-10,13-dimethyl-2,3,4,7,8,9,10,11,12,13,14,15,16,17-tetradecahydro-1H-cyclopenta[a]phenanthren-17-yl)pentanoyl)-4-methylpiperidin-4-yl)methyl)-3-methylurea], on LXRβ, the EC50 was more than 10000 nM. On SREBP-2, this molecule gave an IC50 of less than 250 nM.
The like results for `CON(C[C@H](C)O)C(=O)CC[C@@H](C)[C@H]1CC[C@H]2[C@@H]3CC=C4C[C@@H](O)CC[C@]4(C)[C@H]3CC[C@]12C` [Example 69, (R)-4-((3S,8S,9S,10R,13R,14S,17R)-3-hydroxy-10,13-dimethyl-2,3,4,7,8,9,10,11,12,13,14,15,16,17-tetradecahydro-1H-cyclopenta[a]phenanthren-17-yl)-N—((S)-2-hydroxypropyl)-N-methoxypentanamide] were, in that order, 250 to 1000 nM and less than 250 nM.
Regarding `CCN(C)C(=O)OC[C@@H](C)[C@H]1CC[C@H]2[C@@H]3CC=C4C[C@@H](O)CC[C@]4(C)[C@H]3CC[C@]12C` [Example 352, (2S)-2-[(1R,3aS,3bS,7S,9aR,9bS,11aS)-7-hydroxy-9a,11a-dimethyl-1H,2H,3H,3aH,3bH,4H,6H,7H,8H,9H,9aH,9bH,10H,11H,11aH-cyclopenta[a]phenanthren-1-yl]propyl N-ethyl-N-methylcarbamate], the EC50 on LXRβ lay within 1000 to 10000 nM. Besides, the IC50 against SREBP-2 is less than 250 nM.
The like results for `C[C@H](CCC(=O)N1CCS(=O)(=O)[C@H](C)C1)[C@H]1CC[C@H]2[C@@H]3CC=C4C[C@@H](O)CC[C@]4(C)[C@H]3CC[C@]12C` [Example 356, (2R)-4-[(4R)-4-[(1R,3aS,3bS,7S,9aR,9bS,11aR)-7-hydroxy-9a,11a-dimethyl-1H,2H,3H,3aH,3bH,4H,6H,7H,8H,9H,9aH,9bH,10H,11H,11aH-cyclopenta[a]phenanthren-1-yl]pentanoyl]-2-methyl-1 λ^6-thiomorpholine-1,1-dione] were, in that order, more than 10000 nM and less than 250 nM.
The like results for `COc1ccnc(N2CCN(C(=O)CC[C@@H](C)[C@H]3CC[C@H]4[C@@H]5CC=C6C[C@@H](O)CC[C@]6(C)[C@H]5CC[C@]34C)CC2)c1` [Example 657, (R)-4-((3S,8S,9S,10R,13R,14S,17R)-3-hydroxy-10,13-dimethyl-2,3,4,7,8,9,10,11,12,13,14,15,16,17-tetradecahydro-1H-cyclopenta[a]phenanthren-17-yl)-1-(4-(4-methoxypyridin-2-yl)piperazin-1-yl)pentan-1-one] were, in that order, more than 10000 nM and less than 250 nM.
The like results for `C[C@H](CCc1cccc(C(F)(F)F)n1)[C@H]1CC[C@H]2[C@@H]3CC=C4C[C@@H](O)CC[C@]4(C)[C@H]3CC[C@]12C` [Example 166, (3S,8S,9S,10R,13R,14S,17R)-10,13-dimethyl-17-((R)-4-(6-(trifluoromethyl)pyridin-2-yl)butan-2-yl)-2,3,4,7,8,9,10,11,12,13,14,15,16,17-tetradecahydro-1H-cyclopenta[a]phenanthren-3-ol] were, in that order, more than 10000 nM and 250 to 1000 nM.
“(R)-1-(4-(5,6-dimethoxypyrimidin-4-yl)piperazin-1-yl)-4-((3S,8S,9S,10R,13R,14S,17R)-3-hydroxy-10,13-dimethyl-2,3,4,7,8,9,10,11,12,13,14,15,16,17-tetradecahydro-1H-cyclopenta[a]phenanthren-17-yl)pentan-1-one [Example 620]”: the EC50 at LXRβ was more than 10000 nM. The molecule further gave an IC50 against SREBP-2 of less than 250 nM.
The like results for `CON(C[C@@H](C)O)C(=O)CC[C@@H](C)[C@H]1CC[C@H]2[C@@H]3CC=C4C[C@@H](O)CC[C@]4(C)[C@H]3CC[C@]12C` [Example 70, (R)-4-((3S,8S,9S,10R,13R,14S,17R)-3-hydroxy-10,13-dimethyl-2,3,4,7,8,9,10,11,12,13,14,15,16,17-tetradecahydro-1H-cyclopenta[a]phenanthren-17-yl)-N—((R)-2-hydroxypropyl)-N-methoxypentanamide] were, in that order, 250 to 1000 nM and 250 to 1000 nM.
With `COC(=O)N1CCN(C(=O)NC[C@@H](C)[C@H]2CC[C@H]3[C@@H]4CC=C5C[C@@H](O)CC[C@]5(C)[C@H]4CC[C@]23C)CC1` [Example 236, Methyl 4-(((S)-2-((3S,8S,9S,10R,13S,14S,17R)-3-hydroxy-10,13-dimethyl-2,3,4,7,8,9,10,11,12,13,14,15,16,17-tetradecahydro-1H-cyclopenta[a]phenanthren-17-yl)propyl)carbamoyl)piperazine-1-carboxylate], on LXRβ, the EC50 was more than 10000 nM. In addition, the IC50 against SREBP-2 is less than 250 nM.
Take `C[C@H](CCC(=O)N1CCN(c2ncccc2OC2CC2)CC1)[C@H]1CC[C@H]2[C@@H]3CC=C4C[C@@H](O)CC[C@]4(C)[C@H]3CC[C@]12C` [Example 621, (R)-1-(4-(3-cyclopropoxypyridin-2-yl)piperazin-1-yl)-4-((3S,8S,9S,10R,13R,14S,17R)-3-hydroxy-10,13-dimethyl-2,3,4,7,8,9,10,11,12,13,14,15,16,17-tetradecahydro-1H-cyclopenta[a]phenanthren-17-yl)pentan-1-one]: on LXRβ, the EC50 was more than 10000 nM. Also, at SREBP-2, the IC50 is less than 250 nM.

These data come from patent US20230340011A1 (Asteroid Therapeutics, priority 2022, published 2023).
